Here are results for 3 molecules from patent US10357514B2, “Treatment of cancer using anti-CD19 Chimeric Antigen Receptor” (The Trustees of the University of Pennsylvania, priority 2014, dated 2019).

In one assay the test system is MCL. Particulars: cited from earlier work.
The test system of a further assay is MCL-RL cells. The assay is described as follows: MCL-RL xenograft model in NSG mice. Format: in vivo. How it is done:
NOD-SCID-γ chain−/− (NSG) mice originally obtained from Jackson Laboratories were purchased from the Stem Cell and Xenograft Core of the University of Pennsylvania. All experiments were performed on protocols approved by the Institutional Animal Care and Use Committee (IACUC). Schematics of the utilized xenograft models are discussed herein. Cells (MCL cell lines or T cells) were injected in 200 ul of PBS at the indicated concentration into the tail veins of mice. Bioluminescent imaging was performed using a Xenogen IVIS-200 Spectrum camera and analyzed with LivingImage software v. 4.3.1 (Caliper LifeSciencies). Animals were euthanized at the end of the experiment or when they met pre-specified endpoints according to the IACUC protocols.
Schematics such as those shown in FIGS. 20, 55, and 5A were used in this example. […] 1×10^6 cells from RL (MCL-3), JEKO-1 (MCL-4), and NALM6 (MCL-5) cell lines are injected in NSG mice (20 mice for each experiment). […] At Day 7, Day 14, Day 21, and Day 28, the bioluminescence is imaged to monitor tumor size. […] Survival of the mice is also monitored. […] 2×10^6 MCL-RL cells are injected into NSG mice. […] At days 14, 21, 28, and 35 (after injection of MCL-RL cells), the bioluminescence is imaged to monitor tumor size.
Mean bioluminescence, representing tumor growth, was assessed at various timepoints.

The test system of another assay is PBMCs. The assay is described as follows: CAR19 lentiviral transduction of ibrutinib-treated normal donor PBMCs. Format: cell-based, human. As to conditions: PBMCs incubated with 5 μM ibrutinib for 30 minutes. How it is done: Normal donor PBMCs were obtained using apheresis as described herein, for example in Example 6. […] The cells were then transduced with lentiviral constructs containing CAR19 to generate CART19 T cells using the methods described herein, for example, in Example 4. The number of CART19 T cells generated from ibrutinib-treated PBMCs FACs analysis was performed to determine the number of CART19 T cells generated from ibrutinib-treated PBMCs compared to untreated PBMCs.

A further assay deals with JEKO-1 cells. Nature of the assay: Ibrutinib sensitivity by reduction of bioluminescence (BLI). Format: cell-based, human. As to conditions: 0.1 nM to 10 μM.
The test system of the next assay is RL. The assay is described as follows: MTT assay, ibrutinib inhibition of proliferation. Format: cell-based. As to conditions: Homo sapiens. Background: Tetrazolium assays rely on reduction of a dye to a coloured formazan, in cell work by metabolically active cells.
Another assay deals with Mino. The assay is described as follows: MTT assay, ibrutinib inhibition of proliferation. Format: cell-based. As to conditions: Homo sapiens.
The subject of a further assay is Jeko-1. The assay is described as follows: MTT assay, ibrutinib inhibition of proliferation. The assay is classed as cell-based. As to conditions: Homo sapiens.
The test system of another assay is CART19 T cells. As to conditions: 0.1, 0.5, 1 and 5 μM ibrutinib.
A further assay relates to RL cells. Nature of the assay: Ibrutinib sensitivity by reduction of bioluminescence (BLI). Format: cell-based, human. As to conditions: 0.1 nM to 10 μM.
The test system of another assay is Nalm/6 cells. Nature of the assay: Nalm/6 tumor model in NSG mice. Format: in vivo. How it is done: CART19 function was assessed in an in vivo mouse model. Nalm/6 cells (human acute lymphoblastic leukemia cell line) were implanted into NSG mice, and the mice were monitored daily for at least 50 days. […] CART19 was administered on day 7 or day 9, or mice were left untreated (control). […] For example, the cells were stained with anti-human CD19 antibody to determine the percent of human CD19+(Nalm/6) cells in the blood of the tumor-bearing NSG mice.

For assay [1] the following is noted: mice; cited from earlier work.
In assay [2] the test system is luciferase-expressing mantle cell line (RL luc). The assay is described as follows: Lymphoma xenograft model, tumor burden by mean bioluminescence. The assay is classed as in vivo, NSG mice. As to conditions: 200 ng/mouse i.p. three times weekly from Day 85, mice with suboptimal response to CART19. The text has this:
Tumor size was monitored by measuring the mean bioluminescence of the engrafted tumors over more than 80 days. […] When comparing the tumor burden of mice that received IL-7 treatment to control, before and after IL-7 treatment, tumor reduction in tumor burden was only seen in the mice that had received IL-7 treatment (FIG. 49C).

Take `C=CC(=O)N1CCC[C@@H](n2nc(-c3ccc(Oc4ccccc4)cc3)c3c(N)ncnc32)C1` [ibrutinib, 1-[(3R)-3-[4-Amino-3-(4-phenoxyphenyl)-1H-pyrazolo[3,4-d]pyrimidin-1-yl]piperidin-1-yl]prop-2-en-1-one]: the “patients who do not respond” value with MCL was “about 30%”. Moreover, the values for the median overall survival in the assay on MCL-RL cells (25 mg/kg/day) and in the assay on MCL-RL cells (125 mg/kg/day) were 81 days and 100 days, respectively. The “tumor growth (mean bioluminescence)” value in the assay on MCL-RL cells (ibrutinib alone, 25 and 250 mg/kg/day) is “dose-related sensitivity”. For the same molecule, the “circulating and nodal/organ MCL cells” value in the assay on MCL-RL cells (one week after beginning ibrutinib alone) is “more circulating MCL cells and fewer nodal/organ MCL cells”. For the same molecule, the “tumor burden (bioluminescence)” value in the assay with MCL-RL cells (treatment from Day 7, CART19 2×10^6 cells, ibrutinib 125 mg/kg/day) is on record as “modestly delayed tumor growth at early time points”. Moreover, in the assay with PBMCs, the “transduced PBMCs expressing CAR19” value stood at 15%. For the same molecule, the “sensitivity to ibrutinib (reduction of bioluminescence)” value in the assay with JEKO-1 cells is given as “resistant”; with RL cells, “sensitive”. The figures for the IC50 with RL, in the assay with Mino and in the assay with Jeko-1 were 0.01 µM, ≤ 10 µM and ≤ 10 µM, respectively. Also, the “CD3/CD28-stimulated CART19 cell proliferation” value in the assay on CART19 T cells was “did not affect CART19 cell proliferation”. In the assay with Nalm/6 cells (daily oral gavage from day 7, CART19 on day 7 or 9), the “Nalm/6 cells circulating in peripheral blood” value was “does not impair CART19 function in clearing Nalm/6 cells”. Moreover, the “survival after injection of Nalm/6 cells” value in the assay on Nalm/6 cells (ibrutinib without CART19 T cells) is ≤ 30 days.
As to `CO[C@H]1C[C@@H]2CC[C@@H](C)[C@@](O)(O2)C(=O)C(=O)N2CCCC[C@H]2C(=O)O[C@H]([C@H](C)C[C@@H]2CC[C@@H](O)[C@H](OC)C2)CC(=O)[C@H](C)/C=C(\C)[C@@H](O)[C@@H](OC)C(=O)[C@H](C)C[C@H](C)/C=C/C=C/C=C/1C` [rapamycin], the lifespan result in assay [1] was “extended lifespan”.

B1: IL-7: exogenous recombinant human IL-7 (protein, UniProt P13232 26-177, looked up)
Interleukin-7: DCDIEGKDGKQYESVLMVSIDQLLDSMKEIGSNCLNNEFNFFKRHICDANKEGMFLFRAARKLRQFLKMNSTGDFDLHLLKVSEGTTILLNCTGQVKGRKPAALGEAQPTKSLEENKSLKEQKKLNDLCFLKRLLQEIKTCWNKILMGTKEH
Turning to B1, the “reduction in tumor burden” value in assay [2] is reported as 1-3 log.
